The text below walks through data of ChEMBL document CHEMBL1201862, “PubChem BioAssay data set” (2004).

Assay [1] has as its target Paired box protein Pax-8 (Homo sapiens, UniProt Q06710). Nature of the assay: PAX8 transcriptional activity inhibition in RMG-I – RMG-I cells, luciferase, cherry-pick, dose response (AID 687027).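 Also: luciferase reporter driven by Pax8 target thyroperoxidase promoter measured by SteadyGlo luminescence.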 In kind it is functional, cell-based.
A short description of assay [2]: OVCAR-3 cell viability loss – plate reader, dry powder samples, PAX8 inhibitor project, dose response (AID 743044). In kind it is functional, cell-based.
A short description of assay [3]: IGROV1 cell killing – plate reader, dry powder samples, PAX8 inhibitor project, dose response (AID 743043). In kind it is functional, cell-based. The settings on record: IGROV-1.
Assay [4] is described as follows: OVCAR4 cell viability loss – plate reader, dry powder, SA11, cytotoxicity control for PAX8 inhibitor project, dose response (AID 743150). In kind it is functional, cell-based. The settings on record: OVCAR-4.
Assay [5] is described as follows: OV-90 cell viability loss – plate reader, dry powder, SA8, PAX8 inhibitor project, dose response (AID 743149). Format: functional, cell-based.
A short description of assay [6]: PAX8-dependent cell viability loss – plate reader, dry powder, dose response (AID 743049). In kind it is functional, cell-based.
Assay [7] in a line: Luminescence Cell-Based Dose Retest to Confirm Inhibitors of Cancer Stem Cells. [Related pubchem assays (depositor defined):AID2717, AID2721]. In kind it is functional. The settings on record: Homo sapiens.
Assay [8] has as its target Neurotensin receptor type 1 (Homo sapiens, UniProt P30989). Format: functional.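 Also: Image-based confirmatory dose-response assay measuring agonist activity at NTR1; NTR1-expressing U2OS osteosarcoma cells imaged for beta-arrestin GFP spot formation; agonist potency where compounds increase beta-arrestin recruitment.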
Assay [9] concerns INS1. Put plainly: INS-1E survival protection against cytokine death – cell-based, luminescence, retest, dose response (AID 449756).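 Also: cell death triggered by IL-1 beta plus TNF-alpha plus IFN-gamma mixture; protective hits raise ATP signal compared with cytokine alone wells.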 In kind it is functional. The following applies: Rattus norvegicus.
Assay [10] is described as follows: reduction of Shn3 3'UTR-driven luciferase in osteoblasts – cell-based, Clone20 osteoblasts, firefly luciferase, cherry-picked, dose response (AID 624132).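 Also: firefly luciferase luminescence from reporter carrying the Shn3 3'UTR in osteoblasts.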 In kind it is functional.
Assay [11] is described as follows: loss of viability in HepG2 cells – cell-based, CellTiter-Glo, cherry-picked, cytotoxicity control for Shn3 inhibitor project, dose response (AID 624134). In kind it is functional.
Assay [12] is described as follows: non-specific 3'UTR reporter inhibition in Clone20-Shn3RL – cell-based, Renilla luciferase, cherry-picked, counter-screen for Shn3 inhibitor project, dose response (AID 624133). In kind it is functional.
Assay [13] addresses NAD-dependent protein deacylase sirtuin-5, mitochondrial (Homo sapiens, UniProt Q9NXA8). Nature of the assay: sirtuin-5 deacylation blockers, concentration series – biochemical, fluorescence imaging, cherry-pick, set 5, dose response (AID 720591).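 Also: desuccinylation of succinyl peptide AMC substrate read as fluorescence after trypsin release; potency of inhibitors that lower fluorescence and may act on trypsin instead.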
Assay [14] can be described thus: Luminescence Cell-Based Dose Confirmation HTS to Identify Activators of 5'UTR Stem-Loop Driven Alpha-Synuclein mRNA Translation in H4 Neuroglioblastoma Cells. [Related pubchem assays: 1829 (Project Summary), 1814 (Primary HTS)]. In kind it is functional.
A short description of assay [15]: Luminescence Cell-Based Dose Response HTS to Identify Activators of Luciferase Translation or Activity in H4 […] Cells. [Related pubchem assays: 1829 (Project Summary), 1814 (Primary HTS)]. Format: functional.
For assay [16], the system named is Streptococcus sp. 'group A'. Put plainly: Streptococcus pyogenes SK(-)GAS viability under kanamycin – luminescence, BacTiterGlo, confirmation, counter-screen for streptokinase expression inhibitor project, dose response (AID 1900). In kind it is functional, organism-based. (Counterscreens check selectivity or assay interference.)
The test system of assay [17] is H4. Put plainly: Luminescence Cell-Based Dose Response HTS to Identify Activators of 5'UTR Stem-Loop Driven Prion Protein mRNA Translation in H4 Neuroglioblastoma Cells. [Related pubchem assays: 1829 (Project Summary), 1814 (Primary HTS)]. Format: functional. The settings on record: Homo sapiens.
A short description of assay [18]: Trypanosoma cruzi growth suppression in host cells – NIH3T3 host cells, beta-gal luminescence, confirmation (AID 2044).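 Also: intracellular parasites grown in NIH/3T3 mouse fibroblasts as host cells; luminescent beta-galactosidase reporter signal from transgenic T. cruzi replicating inside host cells; inhibitors lower the luminescence signal.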 In kind it is functional, cell-based.
The nature of assay [19]: microbe, parasite or virus in culture. In kind it is functional. The settings on record: Mycobacterium tuberculosis.
Assay [20] is described as follows: NIH3T3 cell viability loss – ATP luminescence, mouse fibroblasts, counter-screen, dose response (AID 2010).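 Also: cells exposed to compound for about 90 hours before reading.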 Format: functional, cell-based.
Assay [21] concerns Streptococcus. Nature of the assay: GAS UMAA2166 growth inhibition – luminescence, BacTiterGlo, counter-screen for streptokinase expression inhibitor project, dose response (AID 1915).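 Also: potency for reduction of bacterial viability or growth.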 In kind it is functional, organism-based.
A short description of assay [22]: glucagon-like peptide-1 release potency in STC-1, concentration-response, half-maximal inhibitory concentration in the STC-1 line (AID 1117345). Format: functional, cell-based.
Assay [23] can be described thus: Potency on glucagon-like peptide 1 release, dose-response in NCI-H716 cell line, half maximal inhibitory concentration (AID 1117344). In kind it is functional, cell-based.
Assay [24] addresses Eukaryotic translation initiation factor 4E (Mus musculus, UniProt P63073). Put plainly: blockers of eIF4G binding by eIF4E – biochemical, TR-FRET, dose response (AID 855).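 Also: potency for disrupting eIF4E binding to eIF4GI seen as loss of FRET.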 In kind it is functional. On the technique in general: In TR-FRET formats the signal depends on donor and acceptor labels being close together.
Assay [25] addresses Peroxisome proliferator-activated receptor gamma/Nuclear receptor coactivator 2 (Homo sapiens, UniProt P37231). Format: functional.
The target in assay [26] is Peroxisome proliferator-activated receptor gamma/Nuclear receptor coactivator 1 (Homo sapiens, UniProt P37231). Format: functional.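 Also: agonist potency as compounds enhance coactivator SRC-1 recruitment to PPARgamma.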
Peroxisome proliferator-activated receptor gamma/Nuclear receptor coactivator 1, sequence (P37231 whole entry): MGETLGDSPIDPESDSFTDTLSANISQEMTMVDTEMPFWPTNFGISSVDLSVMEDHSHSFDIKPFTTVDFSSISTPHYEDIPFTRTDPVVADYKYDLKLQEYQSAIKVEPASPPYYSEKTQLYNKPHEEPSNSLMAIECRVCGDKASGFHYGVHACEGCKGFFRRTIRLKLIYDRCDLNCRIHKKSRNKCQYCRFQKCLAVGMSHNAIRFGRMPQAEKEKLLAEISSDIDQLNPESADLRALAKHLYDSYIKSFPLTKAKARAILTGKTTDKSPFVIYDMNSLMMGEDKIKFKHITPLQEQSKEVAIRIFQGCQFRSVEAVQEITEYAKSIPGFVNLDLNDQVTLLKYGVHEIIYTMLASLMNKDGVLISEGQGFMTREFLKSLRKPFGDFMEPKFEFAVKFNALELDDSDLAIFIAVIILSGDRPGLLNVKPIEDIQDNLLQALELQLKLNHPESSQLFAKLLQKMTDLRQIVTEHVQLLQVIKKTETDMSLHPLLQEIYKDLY
Peroxisome proliferator-activated receptor gamma/Nuclear receptor coactivator 1, sequence (Q15788 whole entry, further chain): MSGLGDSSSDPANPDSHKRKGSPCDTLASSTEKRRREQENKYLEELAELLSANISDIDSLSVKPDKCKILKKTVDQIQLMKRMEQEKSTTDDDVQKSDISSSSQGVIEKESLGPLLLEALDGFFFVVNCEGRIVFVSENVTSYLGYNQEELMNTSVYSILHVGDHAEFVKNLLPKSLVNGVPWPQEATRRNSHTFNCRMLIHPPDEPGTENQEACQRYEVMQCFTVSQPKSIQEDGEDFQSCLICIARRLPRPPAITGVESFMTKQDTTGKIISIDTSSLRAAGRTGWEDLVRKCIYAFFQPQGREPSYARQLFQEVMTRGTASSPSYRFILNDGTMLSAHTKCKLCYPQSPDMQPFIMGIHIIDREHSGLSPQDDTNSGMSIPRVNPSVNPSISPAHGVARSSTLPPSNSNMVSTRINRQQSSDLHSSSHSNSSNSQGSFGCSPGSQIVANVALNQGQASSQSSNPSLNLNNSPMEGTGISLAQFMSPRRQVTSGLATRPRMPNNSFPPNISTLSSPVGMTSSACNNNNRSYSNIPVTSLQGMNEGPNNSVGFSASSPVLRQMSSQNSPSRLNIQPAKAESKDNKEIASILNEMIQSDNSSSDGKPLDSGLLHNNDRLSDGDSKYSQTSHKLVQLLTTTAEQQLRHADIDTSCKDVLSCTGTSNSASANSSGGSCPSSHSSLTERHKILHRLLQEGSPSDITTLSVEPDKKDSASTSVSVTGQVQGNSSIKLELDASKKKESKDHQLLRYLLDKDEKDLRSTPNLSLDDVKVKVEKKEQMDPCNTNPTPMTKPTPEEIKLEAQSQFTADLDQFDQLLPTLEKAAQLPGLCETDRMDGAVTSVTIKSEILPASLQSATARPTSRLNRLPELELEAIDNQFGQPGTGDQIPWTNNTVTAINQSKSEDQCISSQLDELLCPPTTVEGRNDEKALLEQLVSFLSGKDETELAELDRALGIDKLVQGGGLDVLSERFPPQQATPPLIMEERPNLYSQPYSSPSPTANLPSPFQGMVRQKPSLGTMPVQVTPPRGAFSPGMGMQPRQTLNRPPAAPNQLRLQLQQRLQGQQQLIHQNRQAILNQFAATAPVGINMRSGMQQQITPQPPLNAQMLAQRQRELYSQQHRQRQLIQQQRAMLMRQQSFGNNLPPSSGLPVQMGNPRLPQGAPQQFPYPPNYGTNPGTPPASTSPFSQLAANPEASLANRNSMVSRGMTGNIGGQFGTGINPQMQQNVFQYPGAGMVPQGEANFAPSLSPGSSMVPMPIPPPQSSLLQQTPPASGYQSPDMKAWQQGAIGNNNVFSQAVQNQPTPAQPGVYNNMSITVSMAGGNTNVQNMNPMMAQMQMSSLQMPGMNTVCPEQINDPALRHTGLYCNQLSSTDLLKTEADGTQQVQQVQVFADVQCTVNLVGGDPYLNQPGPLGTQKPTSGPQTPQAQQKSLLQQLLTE
Assay [27] addresses Peroxisome proliferator-activated receptor gamma/Nuclear receptor coactivator 3 (Homo sapiens, UniProt P37231). Format: functional.
Assay [28] relates to BJ. Nature of the assay: BJ-TERT fibroblast viability loss – cell-based, RAS-independent, luminescence, dose response (AID 1933). In kind it is functional. The following applies: Homo sapiens.
In assay [29] the test system is BJ. Nature of the assay: cells. The following applies: Homo sapiens. Format: functional, cell-based.
Assay [30] concerns BJ. Put plainly: BJ-TERT-LT-ST fibroblast viability loss – cell-based, RAS-independent, luminescence, dose response (AID 1935).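 Also: BJ fibroblasts immortalized with TERT plus LT and ST oncogenes.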 In kind it is functional. The settings on record: Homo sapiens.
A short description of assay [31]: DRD fibroblast viability loss – cell-based, non-viral oncogenic, luminescence, dose response (AID 1934). Format: functional. The settings on record: Homo sapiens.

The source made the active and inactive calls.

Eukaryotic translation initiation factor 4E, sequence (P63073 whole entry): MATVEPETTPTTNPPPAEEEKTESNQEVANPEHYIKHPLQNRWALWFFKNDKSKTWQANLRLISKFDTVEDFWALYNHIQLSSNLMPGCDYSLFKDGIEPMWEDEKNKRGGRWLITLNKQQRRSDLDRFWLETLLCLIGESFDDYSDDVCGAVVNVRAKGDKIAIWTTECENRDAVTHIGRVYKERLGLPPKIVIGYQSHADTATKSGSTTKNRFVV
NAD-dependent protein deacylase sirtuin-5, mitochondrial, sequence (Q9NXA8 whole entry): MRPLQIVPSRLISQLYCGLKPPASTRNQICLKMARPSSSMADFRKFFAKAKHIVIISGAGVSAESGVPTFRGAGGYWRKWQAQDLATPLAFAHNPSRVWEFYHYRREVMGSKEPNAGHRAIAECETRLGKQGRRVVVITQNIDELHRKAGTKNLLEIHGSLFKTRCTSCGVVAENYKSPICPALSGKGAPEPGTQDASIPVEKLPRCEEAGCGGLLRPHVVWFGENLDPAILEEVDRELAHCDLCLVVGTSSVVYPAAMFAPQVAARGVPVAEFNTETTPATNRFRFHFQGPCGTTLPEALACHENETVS
Neurotensin receptor type 1, sequence (P30989 whole entry): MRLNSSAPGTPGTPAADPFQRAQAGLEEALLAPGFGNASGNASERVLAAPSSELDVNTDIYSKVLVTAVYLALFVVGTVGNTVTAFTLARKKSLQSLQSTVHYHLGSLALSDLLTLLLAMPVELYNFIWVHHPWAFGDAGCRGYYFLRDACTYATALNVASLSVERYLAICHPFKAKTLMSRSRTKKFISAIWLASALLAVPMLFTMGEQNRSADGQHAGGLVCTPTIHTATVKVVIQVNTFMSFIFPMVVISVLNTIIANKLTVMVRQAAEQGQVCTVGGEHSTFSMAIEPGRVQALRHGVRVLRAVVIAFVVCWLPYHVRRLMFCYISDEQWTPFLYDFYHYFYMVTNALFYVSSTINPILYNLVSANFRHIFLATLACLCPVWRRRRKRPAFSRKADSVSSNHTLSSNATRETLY
Paired box protein Pax-8, sequence (Q06710 whole entry): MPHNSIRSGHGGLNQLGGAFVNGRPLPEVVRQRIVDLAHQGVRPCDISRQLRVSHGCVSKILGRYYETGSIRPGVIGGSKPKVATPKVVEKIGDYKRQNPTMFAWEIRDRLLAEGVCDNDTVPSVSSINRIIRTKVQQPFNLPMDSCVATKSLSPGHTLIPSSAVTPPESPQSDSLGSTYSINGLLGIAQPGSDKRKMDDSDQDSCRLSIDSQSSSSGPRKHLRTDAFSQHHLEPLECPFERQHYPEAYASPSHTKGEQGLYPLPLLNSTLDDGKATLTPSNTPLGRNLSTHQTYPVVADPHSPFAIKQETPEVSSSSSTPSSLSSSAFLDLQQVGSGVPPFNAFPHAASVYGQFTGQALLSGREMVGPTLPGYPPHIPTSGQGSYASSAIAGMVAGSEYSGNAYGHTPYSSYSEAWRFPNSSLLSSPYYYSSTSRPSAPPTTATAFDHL

One may read the AC50 as the concentration at which the activity in the assay is half-maximal. Consider `O=C(CCS(=O)(=O)c1ccccc1)Nc1nc2ccc(F)cc2s1`, for which the AC50 in assay [1] is 3.55 µM (active); in [2] it was 28 µM (active); in assay [3], 36.9 µM (active); in [4], > 100 µM (inactive); in assay [5], > 100 µM (inactive); in [6] it was 20.3 µM (active).
What is called EC50 is the midpoint of the concentration-response curve. Regarding `Cc1cc(F)ccc1S(=O)(=O)Nc1ccccc1C(=O)Nc1ccccc1-c1nc2ccccc2[nH]1`, the half-maximal activity concentration (AC50) in assay [7] was 2.02 µM (active); in [9] it was 6.59 µM (active); in assay [10], 12.1 µM (active); in [11], 23.2 µM (active); in assay [12], 9.69 µM (active). In addition, the EC50 in assay [8] is 29 µM (inactive).
On to `CCN(CC(=O)Nc1ccccc1C(F)(F)F)C(=O)c1ccc2c(=O)n3c(nc2c1)CCC3`, for which the AC50 in [13] was > 30 µM (inactive).
The term IC50 denotes the concentration needed to halve the response being measured. On to `C#C[C@]1(O)CC[C@H]2[C@@H]3CCc4cc(OC5CCCC5)ccc4[C@H]3CC[C@@]21C` [QUINESTROL], for which the EC50 is > 120 µM (not active) in assay [14]; > 120 µM (not active) in assay [15]; 1.94 µM (active) in [16]; > 120 µM (not active) in assay [17]; 4.43 µM (active) in [18]; > 60 µM (not active) in assay [20]. The concentration for a half-maximal effect (EC50) in [21] is 4.17 µM (active). Besides, the CC50 in assay [19] was > 40 µM (active). The values for the IC50 in assay [22] and in assay [23] were > 40 µM (inactive) and 17.6 µM (inactive), respectively.
For the compound `Cc1ccc(Cn2c(N3CCNCC3)nc3c2c(=O)[nH]c(=O)n3C)cc1`, the concentration at half-maximal activity (AC50) in assay [13] was 25.2 µM (active).
Regarding `CC(C)CC(=O)N1CCN(Cc2cccc(F)c2)CC1`, in [24], the IC50 was > 64 µM (inactive).
Take `O=c1oc2ccccc2cc1-c1cn2ccccc2n1`: the EC50 in assay [25] was > 79.4 µM (not active); in assay [26] it was > 79.4 µM (not active); in [27], > 79.4 µM (not active); in assay [28], 11 µM (active); in [29] it was 2.92 µM (active); in assay [30], 17.1 µM (active). Also, the EC50 in assay [31] was 3.59 µM (active). Also, the AC50 in assay [10] is 3.64 µM (active); in [11] it was > 70 µM (inactive); in assay [12], 20.3 µM (active).
In the case of `O=C(NCCc1ccncc1)c1ccccc1F`, in assay [24], the IC50 is > 64 µM (inactive).
